Several values for one entry are separate records, joined by “and”; a condition that tells them apart may be missing. Equal entries are not always repeated.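 Compound exposure: 48 hours, 5 concentrations, 96-well plates. The concentration for 50% growth inhibition is given as GI50. At the TGI there is no net growth.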
Tests used:
Assay in all cases: inhibition of tumour cell growth, NCI panel, 48 h
COLO 205 colon = tested on: COLO 205 colon
HCT-116 colon = tested on: HCT-116 colon
HT29 colon = tested on: HT29 colon
LOX IMVI melanoma = tested on: LOX IMVI melanoma
NCI-H23 lung = tested on: NCI-H23 lung
SK-MEL-2 melanoma = tested on: SK-MEL-2 melanoma
SK-MEL-28 melanoma = tested on: SK-MEL-28 melanoma
SNB-19 CNS = tested on: SNB-19 CNS
SW-620 colon = tested on: SW-620 colon
MDA-MB-231 breast = tested on: MDA-MB-231 breast

| SMILES | GI50 (COLO 205 colon) [µM] | TGI (COLO 205 colon) | GI50 (HCT-116 colon) [µM] | TGI (HCT-116 colon) | GI50 (HT29 colon) [µM] | TGI (HT29 colon) [µM] | GI50 (LOX IMVI melanoma) [µM] | TGI (LOX IMVI melanoma) | GI50 (NCI-H23 lung) [µM] | TGI (NCI-H23 lung) | GI50 (SK-MEL-2 melanoma) [µM] | TGI (SK-MEL-2 melanoma) | GI50 (SK-MEL-28 melanoma) [µM] | TGI (SK-MEL-28 melanoma) [µM] | GI50 (SNB-19 CNS) [µM] | TGI (SNB-19 CNS) [µM] | GI50 (SW-620 colon) [µM] | TGI (SW-620 colon) [µM] | GI50 (MDA-MB-231 breast) | TGI (MDA-MB-231 breast) [µM] |
| --- | --- | --- | --- | --- | --- | --- | --- | --- | --- | --- | --- | --- | --- | --- | --- | --- | --- | --- | --- | --- |
| CC[C@@]1(O)C(=O)OCc2c1cc1n(c2=O)Cc2cc3c([N+](=O)[O-])c(O)ccc3nc2-1 | 3.56 | 27.3 µM | 0.431 | 7.11 µM | 2.64 | > 100 | 0.0552 | 0.91 µM | 0.0821 | 0.636 µM | 2.27 | 6.67 µM | 2.75 | 35.5 | 0.0661 | > 27.8 | 0.416 | 33.8 |  |  |
| Cc1c(C)n(CC(O)CNC2CCCCC2C)c2ccccc12 (configuration not stated) | 2.21 | 4.82 µM | 12 | 24.4 µM |  |  | 14.8 | 28 µM | 16.8 | 32.8 µM |  |  | 14 | 27.4 | 15.5 | 30.9 | 17.9 | 35 | 6.44 µM | 20.5 |
| CN1CCN2c3ccccc3CC(C#N)(C#N)C2C1 (configuration not stated) |  | > 100 µM |  | > 100 µM |  | > 100 |  | > 100 µM |  | > 100 µM |  | > 100 µM |  | > 100 |  | > 100 |  | > 100 |  |  |
| CN(C(=N)c1ccccc1)c1ccccc1 |  | > 100 µM |  | > 100 µM |  | > 100 |  | > 100 µM |  | > 100 µM |  | > 100 µM |  | > 100 |  | > 100 |  | > 100 |  |  |
| CC(C)(C)c1cc(O)c2c(c1O)C(=O)CCC2 |  | > 100 µM |  | > 100 µM |  | > 100 |  | > 100 µM |  | > 100 µM |  |  |  | > 100 |  | > 100 |  | > 100 |  |  |
| COC(=O)CCC(=O)Nc1cccc(C(F)(F)F)c1 |  | > 100 µM |  | > 100 µM |  | > 100 |  | > 100 µM |  | > 100 µM |  | > 100 µM |  | > 100 |  | > 100 |  | > 100 |  |  |
| Cc1ccc2oc(=O)cc(CC(=O)O)c2c1 |  | > 100 µM |  | > 100 µM |  | > 100 |  | > 100 µM |  | > 100 µM |  | > 100 µM |  | > 100 |  | > 100 |  | > 100 |  |  |
| O=C1C[C@@H]2[C@@H](C=CC23CC3)N1O |  | > 100 µM |  | > 100 µM |  | > 100 |  | > 100 µM |  | > 100 µM |  | > 100 µM |  | > 100 |  | > 100 |  | > 100 |  |  |
| COc1cc(-c2nn(-c3ccc(NC(=O)Nc4ccc(Cl)c(C(F)(F)F)c4)cc3)cc2-c2ccncc2)ccc1Cl | 1.67 | 3.29 µM | 1.14 | 2.53 µM |  |  | 1.43 | 2.78 µM | 1.98 | 5.79 µM |  |  | 1.88 | 3.9 | 2.53 | 8.13 | 1.82 | 3.58 | 1.76 µM | 3.82 |
| C=C(c1ccc(OC)c(/C=C/C(=O)c2cc(OC)c(OC)c(OC)c2)c1)c1cc(OC)c(OC)c(OC)c1 | 2.03 | 4.98 µM | 0.609 | 1.9 µM | 0.628 | 3.15 | 0.582 | 1.95 µM | 1.95 | 4.9 µM | 2.58 | 12.4 µM | 1.52 | 3.45 |  |  | 0.6 | 2.38 | 0.995 µM | > 100 |
| CCOC(=O)NC(=O)c1cn(CC(=O)NCC(=O)NCC(=O)N2CCN(CCn3c(C)nc(C(N)=O)c3N)CC2)c(=O)[nH]c1=O |  | > 100 µM |  | > 100 µM |  | > 100 |  | > 100 µM |  | > 100 µM |  | > 100 µM |  | > 100 |  | > 100 |  | > 100 |  |  |
| NC(N)=NS(=O)(=O)c1ccc(NC(=O)c2cccn3c(=O)c4ccccc4nc23)cc1 |  | 34 µM |  | > 100 µM |  | > 100 |  | > 100 µM |  | > 100 µM |  |  |  | > 100 |  | > 100 |  | > 100 |  |  |
| CN(Cc1ccccc1)c1ncnc2ccc(Br)cc12 | 16.2 | 38.2 µM | 11.1 | 23.5 µM |  |  | 14.7 | 29.2 µM | 11.3 | 28.9 µM | 35.7 | > 100 µM | 15.6 | 36.1 | 16.8 | 41.9 |  |  |  |  |
| CCCCN1C(=O)C2c3[nH]c4ccccc4c3C3CCCCC3C2C1=O (mixture of isomers) |  | > 100 µM |  | 23.6 µM |  | > 100 |  | 24.1 µM |  | 78.1 µM |  |  |  | > 100 |  | 64.2 |  | > 100 |  |  |
| CC(C)C[C@H](NC(=O)[C@H](Cc1ccccc1)NC(=O)c1cnccn1)B(O)O | 0.00284 | 1.31 µM and 0.217 µM | 0.00108 | < 0.0161 µM and 0.00328 µM | 0.00166 |  | 0.00135 | < 0.0129 µM and 0.00413 µM | 0.00175 | 0.183 µM and 0.0197 µM | 0.00172 | < 0.0223 µM and 0.0101 µM | 0.00104 |  |  |  | 0.00121 |  | < 0.0118 µM and 0.00177 µM | 0.00541 |
| C=C(c1ccccc1)[C@@]1(O)CCCC[C@H]1NC(c1ccccc1)c1ccccc1 |  | 28 µM |  | 20.5 µM |  | 27.3 |  | 21.9 µM |  | 28.7 µM |  | 27.4 µM |  | 30.2 |  | 36.7 |  | 32.8 |  |  |
| Nc1ncnc2c1ncn2C1OC(CO)CC1O (configuration not stated) |  | > 100 µM |  | > 100 µM |  |  |  | 70.8 µM |  | > 100 µM |  |  |  | > 100 |  | > 100 |  | > 100 |  | 42.7 |
| COc1ccc(C(=C(C#N)C#N)c2ccc(OC)cc2)cc1 |  | > 100 µM |  | > 100 µM |  | > 100 |  | > 100 µM |  | > 100 µM |  | > 100 µM |  | > 100 |  | > 100 |  | > 100 |  |  |
| C=CC1CC12C(=O)C1OC2(C)C2C(=O)c3c(O)cccc3C(=O)C12 (configuration not stated) | 31.7 | > 100 µM | 38.1 | > 100 µM | 33.9 | > 100 |  |  | 26.9 | 85.6 µM | 50 | > 100 µM | 29.1 | > 100 | 87.8 | > 100 |  |  | 18.7 µM | 59 |

From PubChem BioAssay (NCI)
